Test results: patent US12297223B2, “Compounds” (GLAXOSMITHKLINE INTELLECTUAL PROPERTY DEVELOPMENT LIMITED, priority 2019, dated 2025)

How the values were obtained:
[1] = target: T1, FimH (Escherichia coli, UniProt Q1R2J4); assay: Hemagglutination inhibition (HAI) assay with UTI89 bacteria and guinea pig red blood cells; assay type: cell-based; settings: HAI titer (EC>90): concentration reducing bacterial agglutination of guinea pig red blood cells by greater than 90%; also: ranges in brackets are in nM
T1 construct: endogenous in cells; host or cells: E. coli UTI89 (whole bacteria)
Procedure: “HAI titer or EC>90” is that concentration of the FimH inhibitor/antagonist which reduces the bacterial agglutination of guinea pig red blood cells by greater than 90%.
The activities of the Examples 1-34 compounds above as FimH antagonists/inhibitors were obtained by the following assay(s), and results are provided in Table 1. Results not provided mean that the activities have not yet been tested.
Hemagglutination Inhibition Assay (HAI)
The hemagglutination inhibition (HAI) assay was performed with UTI89 bacteria and guinea pig red blood cells, as previously described (S. J. Hultgren, W. R. Schwan, A. J. Schaeffer, J. L. Duncan Infect. Immun. 1986, 54, 613-620 and Jarvis, C.; Han, Z.; Kalas, V.; Klein, R.; Pinkner, J. S.; Ford, B.; Binkley, J.; Cusumano, C. K.; Cusumano, Z.; Mydock-McGrane, L.; Hultgren, S. J.; Janetka, J. W., Chem Med Chem 2016, 11, 367-373). Values not listed were not tested.

[2] = Rat pharmacokinetics after IV infusion and oral dose (AUC oral, % F, Ue % PO); assay type: in vivo, Male Wistar Han rats; settings: for DNAUC oral h*uM: PO 5 mg/kg, dose normalized AUC in blood, n = 3; for bioavailability: male, Wistar Han, whole blood; for bioavailability / %F: oral bioavailability, PO 5 mg/kg vs IV infusion 1 mg/kg; for Ue% po: percentage of oral dose eliminated unchanged in urine (or estimate from iv urine fraction times oral bioavailability)
Text: General Assays for Obtaining AUC Oral h*μm, % F, and Ue % PO Values
Male Wistar Han rats were purchased from Vital River Laboratory Animal Technology Co. Ltd (Beijing, China). The animals were approx. 6-8 weeks old with body weights of 200-300 g on the dosing date. The animals were housed in a 12-hour light/12-hour dark cycle environment and had free access to food and water. All animals were fed prior to dosing. Studies were approved by the Pharmaron Institutional Animal Care and Use Committee (IACUC).
Test article was administered as an intravenous infusion for 1 hour (1 mg/kg) at 5 mL/kg/h. After 48 h, animals received a single oral dose (5 mg/kg, free form) at a dose volume of 10 mL/kg, respectively. Blood samples were collected at various time points after IV infusion and PO administrations. Urine samples were collected at various time points after IV infusion and PO administrations (for some compounds).
Test article was dissolved in DMSO with vortexing and sonification to obtain a stock solution. An aliquot of the stock solution was mixed with 10% HP-β-CD in saline with vortexing to obtain a solution with concentration at 0.2 mg/mL of test article.
Test article was added into 1% Methyl Cellulose with vortexing and sonication to obtain a homogeneous suspension with concentration at 0.5 mg/mL of test article.
For IV infusion (1 mg/kg) administration, blood samples were collected from each animal at 0, 0.25, 0.5, 0.75, 1, 1.08, 1.25, 1.5, 1.75, 2, 3, 5, 8, 12, 24 hour post-dose.
For PO (5 mg/kg) administration, blood samples were collected from each animal at 0, 0.25, 0.5, 1, 1.5, 2, 3, 4, 6, 8, 12, 24 hour post-dose.
Blood samples (50 μL) were collected from each animal via jugular vein. These blood samples were placed into tubes containing K2EDTA. Whole blood was mixed with same volume of water and inverted several times. The blood samples were stored at −75±15° C. until analysis.
For IV infusion (1 mg/kg) administration, urine samples were collected from each animal at 0-4, 4-8, 8-12, 12-24 hour post-dose.
For PO (5 mg/kg) administration, urine samples were collected (for some compounds) from each animal at 0-4, 4-8, 8-12, 12-24 hour post-dose.
55 μL of standards, 55 μL of QC samples or 55 μL of unknown samples (50 μL of blood or urine with 5 μL 50% acetonitrile) were mixed to 200 μL of acetonitrile containing IS (dexamethasone) to precipitate proteins. Then the samples were vortexed for 30 sec. After centrifugation at 4° C., 4700 rpm for 30 min, and 5 μL of the supernatant was injected into the LC-MS/MS system for quantitative analysis.
Test article blood and urine concentrations for each animal following IV infusion at 1 mg/kg and PO at 5 mg/kg were used to calculate pharmacokinetic parameters by employing a non-compartmental analysis (Phoenix™ WinNonlin® 7.0). The linear trapezoidal algorithm was used for AUC calculation. • AUC oral h*μM: Area under the curve (AUC) of drug concentration in blood vs. time (units: h*μM) following oral administration • % F: Oral bioavailability (%) derived from the ratio of dose-normalized AUC following PO and IV administration • Ue % PO: Percentage of oral dose eliminated unchanged in urine or an estimater of that parameter generated from using the percentage of the iv dose eliminated in the urine times the oral bioavailability

Row | Compound | HAI [1] | DNAUC oral h*uM [2] | bioavailability [2] [%] | Ue% po [2] | %F [2]
1 | Cc1cc(-c2cc(C(F)(F)F)ccn2)ccc1[C@@H](C)[C@H]1O[C@H](CO)[C@@H](O)[C@H](O)[C@@H]1O (single isomer, unassigned) [Example 2] | “+++” (50-200) | “++” (0.5 ≤ x ≤ h · μM) | > 30 | “++” (0.5 ≤ x ≤ 5%) | 
2 | Cc1cc(-c2cc(F)cc(F)c2)ccc1[C@@H](C)[C@H]1O[C@H](CO)[C@@H](O)[C@H](O)[C@@H]1O (single isomer, unassigned) [Example 28] | “+++” (50-200) |  |  |  | 
3 | C#C[C@@H](c1ccc(-c2cc(F)c(Cl)c(F)c2)cc1C)[C@H]1O[C@H](CO)[C@@H](O)[C@H](O)[C@@H]1O (single isomer, unassigned) [Example 34] | “+++” (50-200) |  |  |  | 
4 | Cc1cc(-c2cnc(C(F)(F)F)cn2)ccc1[C@@H](C)[C@H]1O[C@H](CO)[C@@H](O)[C@H](O)[C@@H]1O [Example 1, (2R,3S,4R,5S,6R)-2-(Hydroxymethyl)-6-((R)-1-(2-methyl-4-(5-(trifluoromethyl)pyrazin-2-yl)phenyl)ethyl)tetrahydro-2H-pyran-3,4,5-triol] | “++++” (<50) | “++” (0.5 ≤ x ≤ h · μM) | > 30 | “+++” (>5%) | 
5 | C[C@H](c1ccc(-c2cnc(C(F)(F)F)cn2)cc1C(F)(F)F)[C@H]1O[C@H](CO)[C@@H](O)[C@H](O)[C@@H]1O [Example 3, (2R,3S,4R,5S,6R)-2-(hydroxymethyl)-6-((R)-1-(2-(trifluoromethyl)-4-(5-(trifluoromethyl)pyrazin-2-yl)phenyl)ethyl)tetrahydro-2H-pyran-3,4,5-triol] | “++++” (<50) | “+++” (>1 h · μM) | > 30 | “+++” (>5%) | 
6 | Cc1cc(-c2cncc(C(F)(F)F)c2)ccc1[C@@H](C)[C@H]1O[C@H](CO)[C@@H](O)[C@H](O)[C@@H]1O [Example 4, (2R,3S,4R,5S,6R)-2-(Hydroxymethyl)-6-((R)-1-(2-methyl-4-(5-(trifluoromethyl)pyridin-3-yl)phenyl)ethyl)tetrahydro-2H-pyran-3,4,5-triol] | “++++” (<50) | “++” (0.5 ≤ x ≤ h · μM) | > 30 | “+++” (>5%) | 
7 | Cc1cc(-c2cc(F)c(Cl)c(F)c2)ccc1[C@@H](CO)[C@H]1O[C@H](CO)[C@@H](O)[C@H](O)[C@@H]1O [Example 7, (2R,3S,4R,5S,6R)-2-((S)-1-(4′-chloro-3′,5′-difluoro-3-methyl-[1,1′-biphenyl]-4-yl)-2-hydroxyethyl)-6-(hydroxymethyl)tetrahydro-2H-pyran-3,4,5-triol] | “++++” (<50) | “++” (0.5 ≤ x ≤ h · μM) | 10 to 30 | “++” (0.5 ≤ x ≤ 5%) | 
8 | Cc1cc(-c2cc(F)cc(F)c2)ccc1[C@@H](CCO)[C@H]1O[C@H](CO)[C@@H](O)[C@H](O)[C@@H]1O [Example 11] | “+++” (50-200) |  |  |  | 
9 | Cc1cc(-c2cc(F)cc(F)c2)ccc1[C@@H](CO)[C@H]1O[C@H](CO)[C@@H](O)[C@H](O)[C@@H]1O [Example 12] | “+++” (50-200) |  |  |  | 
10 | C=C[C@H](c1ccc(-c2cc(F)cc(F)c2)cc1C)[C@H]1O[C@H](CO)[C@@H](O)[C@H](O)[C@@H]1O [Example 13] | “++” (201-1000) |  |  |  | 
11 | Cc1cc(-c2cc(F)c(Cl)c(F)c2)ccc1[C@@H](CCO)[C@H]1O[C@H](CO)[C@@H](O)[C@H](O)[C@@H]1O [Example 14] | “++++” (<50) | “+” (<0.5 h · μM) |  |  | 
12 | C=C[C@H](c1ccc(-c2cc(F)c3nccnc3c2)cc1C)[C@H]1O[C@H](CO)[C@@H](O)[C@H](O)[C@@H]1O [Example 15] | “++++” (<50) | “+” (<0.5 h · μM) |  |  | 
13 | CC[C@H](c1ccc(-c2ccn(C)c(=O)c2)cc1C)[C@H]1O[C@H](CO)[C@@H](O)[C@H](O)[C@@H]1O [Example 16] | “+++” (50-200) | “+” (<0.5 h · μM) |  |  | 
14 | CC[C@H](c1ccc(-c2cc(F)cc(C#N)c2)cc1C)[C@H]1O[C@H](CO)[C@@H](O)[C@H](O)[C@@H]1O [Example 17] |  | “+” (<0.5 h · μM) |  |  | 
15 | C=C[C@H](c1ccc(-c2cnc(C3CC3)cn2)cc1C)[C@H]1O[C@H](CO)[C@@H](O)[C@H](O)[C@@H]1O [Example 19] | “++++” (<50) | “+” (<0.5 h · μM) |  |  | 
16 | C=C[C@H](c1ccc(-c2cncc(C#N)c2)cc1C)[C@H]1O[C@H](CO)[C@@H](O)[C@H](O)[C@@H]1O [Example 20] | “+++” (50-200) |  |  |  | 
17 | CC[C@H](c1ccc(-c2cncc(C#N)c2)cc1C)[C@H]1O[C@H](CO)[C@@H](O)[C@H](O)[C@@H]1O [Example 21] | “+++” (50-200) | “+” (<0.5 h · μM) |  |  | 
18 | CC[C@H](c1ccc(-c2cnc(C3CC3)cn2)cc1C)[C@H]1O[C@H](CO)[C@@H](O)[C@H](O)[C@@H]1O [Example 22] | “+++” (50-200) |  |  |  | 
19 | Cc1cc(-c2ccc(C(F)(F)F)cn2)ccc1[C@@H](C)[C@H]1O[C@H](CO)[C@@H](O)[C@H](O)[C@@H]1O [Example 27] | “+++” (50-200) |  |  |  | 
20 | Cc1cc(-c2cncc(C(F)(F)F)n2)ccc1[C@@H](C)[C@H]1O[C@H](CO)[C@@H](O)[C@H](O)[C@@H]1O [Example 29] | “++++” (<50) | “+” (<0.5 h · μM) | 10 to 30 | “++” (0.5 ≤ x ≤ 5%) | 
21 | Cc1cc(-c2cncc(F)c2)ccc1[C@@H](C)[C@H]1O[C@H](CO)[C@@H](O)[C@H](O)[C@@H]1O [Example 30] | “+++” (50-200) |  |  |  | 
22 | Cc1cc(-c2ccc(C(F)(F)F)nn2)ccc1C(C)[C@H]1O[C@H](CO)[C@@H](O)[C@H](O)[C@@H]1O (stereo partly drawn) [Example 31] | “++++” (<50) |  |  |  | 
23 | C[C@H](c1ccc(-c2cc(C(F)(F)F)ccn2)cc1C(F)(F)F)[C@H]1O[C@H](CO)[C@@H](O)[C@H](O)[C@@H]1O [Example 32] | “+++” (50-200) |  |  |  | 
24 | C[C@H](c1ccc(-c2ccc(C(F)(F)F)cn2)cc1C(F)(F)F)[C@H]1O[C@H](CO)[C@@H](O)[C@H](O)[C@@H]1O [Example 33] | “+++” (50-200) |  |  |  | 
25 | (2R,3S,4R,5S,6R)-2-(Hydroxymethyl)-6-((R)-1-(2-methyl-4-(5-(trifluoromethyl)pyrazin-2-yl)phenyl)allyl)tetrahydro-2H-pyran-3,4,5-triol [Example 6] | “+++” (50-200) | “+” (<0.5 h · μM) |  |  | “++” (10 ≤ x ≤ 30%)
26 | (2R,3S,4R,5S,6R)-2-(Hydroxymethyl)-6-((R)-1-(2-methyl-4-(5-(trifluoromethyl)pyrazin-2-yl)phenyl)propyl)tetrahydro-2H-pyran-3,4,5-triol [Example 5] | “+++” (50-200) | “+” (<0.5 h · μM) |  | “++” (0.5 ≤ x ≤ 5%) | “++” (10 ≤ x ≤ 30%)
